Columns and labels:
[1] = test system: S. typhimurium (ATCC #14028); test: Salmonella typhimurium Septicemia Model; type: in vivo, Mice; settings: 700 CFU intravenously; treatment on days 2 and 4 post-inoculation; groups of 10
Experimental: Salmonella typhimurium Septicemia Model: S. typhimurium (ATCC #14028) was grown in trypticase soy broth at 35°C overnight. Aliquots of this suspension were frozen and maintained at -70°C. For use, cultures were thawed and diluted to contain 700 CFU/ml in 0.9% saline. Mice were inoculated intravenously (0.1 ml) via the lateral tail vein. Treatment was given at various times after infection. Mortality was monitored daily for two weeks.
Mice (in groups of 10) that were inoculated intravenously with 700 CFU of S. typhimurium and received no treatment died within 6-8 days after infection (Fig. 11). […] In this case, the cephalosporin:lipid complex preparation was not washed so that 30% of the administered dose was encapsulated.

S. aureus = test: Staphylococcal Septicemia Model; type: in vivo, Mice; settings: for % Survival at 72 hours: 10 mice
Experimental: Staphylococcal Septicemia Model. The S. aureus inoculum was prepared as for the abscess model. Mice were inoculated intraperitoneally with 2 x 10⁸ CFU in 5% hog/mucin. Treatment was given before or after infection. […]
The effect of free and CHStris cephalosporin:lipid complex cephapirin was compared in an acute staphylococcus septicemia model.

S. aureus (ATCC #29740) [2] = test: Staphylococcal Abscess Model; type: in vivo, Mice (out-bred CD-1 males); settings: single dose (200 mg/kg)
Experimental: Staphylococcal Abscess Model. S. aureus (ATCC #29740) was grown overnight at 30°C in trypticase soy broth. Aliquots of this suspension were frozen at -70°C. […] For use, cultures were thawed and diluted with saline to contain the desired number of colony forming units (CFU) per ml. Mice (out-bred CD-1 males) were injected subcutaneously with 0.1 ml of S. aureus suspension in the abdominal area. Treatment with free or encapsulated drug was given before or after infection. At four days after infection, mice were killed by cervical dislocation, the abscesses were carefully dissected out and their diameters measured.
To determine the effect of treatment on abscess development, mice were given a single intravenous or subcutaneous injection of free or complexed cephapirin at various times before or after injection.

[3] = Tissue distribution of cephapirin activity after intravenous administration (agar well diffusion bioassay); type: in vivo, mice; settings: 200 mg/kg intravenous; for concentration at 1 h / concentration at 3 h / concentration at 7 h / concentration at 10 h / concentration at 24 h: mouse
Experimental: (§1) The antibacterial activity was measured by an agar well diffusion bioassay, though other assays for antibacterial activity or chemical, or immunological assays for the drug substance are known to those skilled in the art. Briefly, the agar well diffusion bioassay used here were performed by cutting wells into an agar such as Trypticaso Soy Agar (Difco., Detroit, MI) that were previously seeded with a test bacteria such as Bacillus subtilis (ATCC #6633). The wells were filled with a small amount of test material here about 50ul of the test sample, and the agar plates were incubated. Bacillus subtilis incubation was for about 16-24 hours at about 35°C. Growth of a bacterial "lawn" around the well was inhibited by antibiotic present in the agar as diffused from the test sample. The diameters of the zones of inhibited growth around the wells were proportional to the concentration of antibiotic in the test sample and were quantitated by comparison with known, standard antibiotic solutions.

[4] = Serum levels of cephapirin activity after subcutaneous or intravenous administration; type: in vivo, mice
Experimental: as §1
Cephapirin activity in the serum of mice was determined at intervals after subcutaneous or intravenous administration of free or complexed drug. […] Maximal activity was found in the serum of mice given free cephapirin (by either route) at the earliest time points examined (one half to one hour post-injection). […] With a 200 mg/kg dose, serum levels were 10 ug/ml or greater for 24 hours after injection. […]

S. aureus (ATCC #29740) [5] = test: In vitro minimal inhibitory concentration by micro-titer dilution method; type: cell-based; settings: Staphylococcus aureus, ATCC29740
in vivo = settings: mouse, iv, 924 mg/kg
Experimental: Contrast agents were tested in mice by injecting a single intravenous dose of free or complexed contrast agent (diatrizoate) via the tail vein. […] The specific activity of the doses were about 10000 c/mg I.

[6] = test system: many susceptible organisms; settings: for many susceptible organisms; cited from earlier work
[7] = Serum levels of cefazolin after a single intravenous dose; type: in vivo, mice
Experimental: as §1
Both cephapirin and cefazolin display prolonged activity in serum and activity at a higher level by the cephalosporin:lipid complex preparation as compared to the free drug. […] Extended prophylactic activity in the serum can also be achieved by subcutaneous administration of a cephalosporin:lipid complex antibiotic.
Intravenous injection of a single 100mg/kg dose of free cefazolin dosium in mice results in a mean serum concentration of 8 to 20ug/ml at one hour post dose (Fig. 9).

CC(=O)OCC1=C(C(=O)O)N2C(=O)[C@@H](NC(=O)CSc3ccncc3)[C@H]2SC1 [Free Cephapirin, cephapirin sodium]
survival [1]: did not prolong survival
% Survival at 72 hours (S. aureus; treated subcutaneously -1 hour, 50 mg/kg): 100%
% Survival at 72 hours (S. aureus; treated subcutaneously -1 hour, 100 mg/kg): 100%
% Survival at 72 hours (S. aureus; treated subcutaneously -1 hour, 200 mg/kg): 100%
% Survival at 72 hours (S. aureus; treated subcutaneously -4 hour, 50 mg/kg): 0%
% Survival at 72 hours (S. aureus; treated subcutaneously -4 hour, 100 mg/kg): 10%
% Survival at 72 hours (S. aureus; treated subcutaneously -4 hour, 200 mg/kg): 0%
survival (S. aureus; treated subcutaneously at one hour before infection, end of the experiment (14 days)): survived until the end of the experiment
survival (S. aureus; treatment at four hours before infection): no effect on survival
effect on abscess size (S. aureus (ATCC #29740) [2]; four hours before infection (complex: up to four hours before)): no effect on abscess size
effect on abscess size (S. aureus (ATCC #29740) [2]; one hour after infection): significantly reduces or prevents abscess development
effect on abscess size (S. aureus (ATCC #29740) [2]; one hour before infection): reduced abscess size slightly
activity in tissues ([3]; at 3 hours or later): No activity was detected
concentration at 1 h ([3]; KIDNEY, time 1 (hours after injection), mean of 3 to 5 mice ± S.E.M.): 49000 ± 8000 ng/g
concentration at 3 h ([3]; KIDNEY, mean ± S.E.M.): < 500 ng/g
concentration at 7 h ([3]; KIDNEY, mean ± S.E.M.): < 500 ng/g
concentration at 10 h ([3]; KIDNEY, mean ± S.E.M.): < 500 ng/g
concentration at 24 h ([3]; KIDNEY, mean ± S.E.M.): < 500 ng/g
concentration at 1 h ([3]; LIVER, time 1, mean ± S.E.M.): 46000 ± 12000 ng/g
concentration at 3 h ([3]; LIVER, mean ± S.E.M.): < 500 ng/g
concentration at 7 h ([3]; LIVER, mean ± S.E.M.): < 500 ng/g
concentration at 10 h ([3]; LIVER, mean ± S.E.M.): < 500 ng/g
concentration at 24 h ([3]; LIVER, mean ± S.E.M.): < 500 ng/g
concentration at 1 h ([3]; SPLEEN, time 1, mean ± S.E.M.): < 500 ng/g
concentration at 3 h ([3]; SPLEEN, mean ± S.E.M.): < 500 ng/g
concentration at 7 h ([3]; SPLEEN, mean ± S.E.M.): < 500 ng/g
concentration at 10 h ([3]; SPLEEN, mean ± S.E.M.): < 500 ng/g
concentration at 24 h ([3]; SPLEEN, mean ± S.E.M.): < 500 ng/g
activity in the serum ([4]; at 3 hours or later): no activity was detectable
half-life of free drug ([4]; serum, both intravenous and sub-cutaneous administration, estimated): approximately 20 minutes
MIC (S. aureus (ATCC #29740) [5]): 0.05 to 0.1 µg/mL

CC(=O)Nc1c(I)c(NC(C)=O)c(I)c(C(=O)O)c1I [free diatrizoate, diatrizoate]
concentration at 0.5 h (in vivo): 2.8e+06 ng/g
concentration at 1 h (in vivo): 800000 ng/g
concentration at 1.5 h (in vivo): 300000 ng/g

cefazolin sodium [free cefazolin]
MICp [6]: about 0.5 ug (base weight)/ml (plasma or serum)
MICt [6]: about 0.5 ug (base weight)/mg (spleen)
mean serum concentration ([7]; mouse, in vivo, iv, 100 mg/kg, 1 h): 8000 to 20000 ng/mL
serum level ([7]; mouse, in vivo, iv, 100 mg/kg, 2 h): approximately 2 ug/ml
serum level ([7]; single 100mg/kg intravenous dose, at 3 hours after administration): below the level of detection

Source: patent publication EP0414806B1, “HIGH RATIO ACTIVE AGENT:LIPID COMPLEX” (THE LIPOSOME COMPANY, INC., priority 1988, dated 1989)
